These results are taken from ChEMBL document CHEMBL5370631, “Emopamil-Binding Protein Inhibitors for Treating Multiple Sclerosis” (ACS Med Chem Lett, 2023).

One may read the IC50 as the point on the concentration scale where inhibition reaches its midpoint.

The target of this experiment is 3-beta-hydroxysteroid-Delta(8),Delta(7)-isomerase (Homo sapiens, UniProt Q15125). The experiment is described as follows: Inhibition of human EBP isolated from HEK293T cells assessed as reduction in dihydrolathosterol-d5 formation using zymosterol-d5 as substrate pre incubated for 30 mins followed by substrate addition and incubated at 37 degC for 4 hrs by LC-APCI MRM MS analysis. Format: cell-free, HEK-293T.
Sequence of 3-beta-hydroxysteroid-Delta(8),Delta(7)-isomerase (Q15125 whole entry): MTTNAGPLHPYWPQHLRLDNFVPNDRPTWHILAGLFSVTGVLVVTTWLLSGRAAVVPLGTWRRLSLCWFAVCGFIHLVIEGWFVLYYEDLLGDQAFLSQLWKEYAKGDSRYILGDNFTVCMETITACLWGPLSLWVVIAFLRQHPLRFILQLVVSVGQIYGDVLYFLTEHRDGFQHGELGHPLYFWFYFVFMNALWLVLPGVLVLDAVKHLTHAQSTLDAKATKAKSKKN

On to `CC1CCN([C@H]2C[C@H]3CC[C@@H](C2)N3S(=O)(=O)c2ccc(OC(F)F)cc2)CC1`, for which the IC50 is below 50 nM.
With `Cc1cc(S(=O)(=O)N2[C@@H]3CC[C@H]2C[C@@H](CN2CCOCC2)C3)n(C)n1`, the IC50 was below 50 nM.
`O=S(=O)(c1ccc(OC(F)F)cc1)N1C2CCC1CC(NC1CCOCC1)C2` (stereo unspecified): the IC50 is below 50 nM.
Under `O=S(=O)(c1ccc(OC(F)F)cc1)N1[C@@H]2CC[C@H]1C[C@@H](NCC1(O)CCOCC1)C2` stands below 50 nM; under `O=S(=O)(c1ccc(OC(F)F)cc1)N1C2CCC1CC(NCC1CCOCC1)C2` (stereo unspecified), below 50 nM.
`CC12CC(NC3CC4CCC(C3)N4S(=O)(=O)c3ccc(OC(F)F)cc3)(CO1)C2` (stereo unspecified): the IC50 is below 50 nM.
